Reference: the supplement of paper PMC13380429

How the values were obtained:
Conditions in all cases: 72 h
HepG2 [1] = experiment: relative viability EC50 (midpoint between 100% and the lowest measured viability); higher = less toxic
Vero E6 [2] = experiment: as above
U2OS [3] = experiment: as above
Caco-2 [4] = experiment: as above
HepG2 [5] = experiment: drug sensitivity score (DSS) for viability; higher = more toxic; extreme values may be limits of the assay
Vero E6 [6] = experiment: as above
U2OS [7] = experiment: as above
Caco-2 [8] = experiment: as above
HepG2 [9] = experiment: cell viability relative to DMSO; higher = less toxic
Vero E6 [10] = experiment: as above
U2OS [11] = experiment: as above
Caco-2 [12] = experiment: as above
Calu-3 [13] = experiment: relative viability EC50 (midpoint between 100% and the lowest measured viability); higher = less toxic
Calu-3 [14] = experiment: drug sensitivity score (DSS) for viability; higher = more toxic; extreme values may be limits of the assay
Calu-3 [15] = experiment: cell viability relative to DMSO; higher = less toxic

Row | Structure (SMILES) | relative viability EC50 (HepG2 [1]) [µM] | relative viability EC50 (Vero E6 [2]) [µM] | relative viability EC50 (U2OS [3]) [µM] | relative viability EC50 (Caco-2 [4]) [µM] | drug sensitivity score (HepG2 [5]) | drug sensitivity score (Vero E6 [6]) | drug sensitivity score (U2OS [7]) | drug sensitivity score (Caco-2 [8]) | cell viability (HepG2 [9]; 1 nM) [%] | cell viability (HepG2 [9]; 10 nM) [%] | cell viability (HepG2 [9]; 100 nM) [%] | cell viability (HepG2 [9]; 1000 nM) [%] | cell viability (HepG2 [9]; 10000 nM) [%] | cell viability (Vero E6 [10]; 1 nM) [%] | cell viability (Vero E6 [10]; 10 nM) [%] | cell viability (Vero E6 [10]; 100 nM) [%] | cell viability (Vero E6 [10]; 1000 nM) [%] | cell viability (Vero E6 [10]; 10000 nM) [%] | cell viability (U2OS [11]; 1 nM) [%] | cell viability (U2OS [11]; 10 nM) [%] | cell viability (U2OS [11]; 100 nM) [%] | cell viability (U2OS [11]; 1000 nM) [%] | cell viability (U2OS [11]; 10000 nM) [%] | cell viability (Caco-2 [12]; 1 nM) [%] | cell viability (Caco-2 [12]; 10 nM) [%] | cell viability (Caco-2 [12]; 100 nM) [%] | cell viability (Caco-2 [12]; 1000 nM) [%] | cell viability (Caco-2 [12]; 10000 nM) [%] | relative viability EC50 (Calu-3 [13]) [µM] | drug sensitivity score (Calu-3 [14]) | cell viability (Calu-3 [15]; 1 nM) [%] | cell viability (Calu-3 [15]; 10 nM) [%] | cell viability (Calu-3 [15]; 100 nM) [%] | cell viability (Calu-3 [15]; 1000 nM) [%] | cell viability (Calu-3 [15]; 10000 nM) [%]
1 | C/C(=N\NC(=O)[C@@H]1C(=O)NC[C@H]1c1ccccc1)c1cccc(Br)c1 | > 10 | > 10 | > 10 | > 10 | 0 | 0 | 0 | 0 | 99.4 | 99.8 | 101 | 103 | 92.4 | 96.3 | 97.9 | 94 | 98.2 | 96.4 | 99.9 | 100 | 103 | 94.1 | 97.5 | 102 | 97.5 | 104 | 96 | 101 | – | – | – | – | – | – | –
2 | CN[C@H](CC(C)C)C(=O)N[C@H]1C(=O)N[C@@H](CC(N)=O)C(=O)N[C@H]2C(=O)N[C@H]3C(=O)N[C@H](C(=O)N[C@H](C(=O)O)c4cc(O)cc(O)c4-c4cc3ccc4O)[C@H](O[C@H]3C[C@](C)(N)[C@@H](O)[C@H](C)O3)c3ccc(c(Cl)c3)Oc3cc2cc(c3O[C@@H]2O[C@H](CO)[C@@H](O)[C@H](O)[C@H]2O[C@H]2C[C@](C)(NCc3ccc(-c4ccc(Cl)cc4)cc3)[C@@H](O)[C@H](C)O2)Oc2ccc(cc2Cl)[C@H]1O [oritavancin] | > 10 | > 10 | > 10 | > 10 | 0 | 0 | 0 | 0 | 104 | 106 | 98.9 | 104 | 105 | 108 | 113 | 93.2 | 106 | 95.7 | 102 | 100 | 103 | 96.5 | 102 | 97.2 | 97.7 | 98 | 90.4 | 102 | – | – | – | – | – | – | –
3 | O=C(O)c1cc(/N=N/c2ccc(S(=O)(=O)Nc3ccccn3)cc2)ccc1O [sulfasalazine] | – | > 10 | > 10 | > 10 | – | 0 | 0 | 0 | – | – | – | – | – | 104 | 103 | 107 | 98.7 | 97.6 | 98.6 | 99.1 | 97.4 | 102 | 98.1 | 108 | 99.5 | 89.9 | 96.6 | 112 | > 10 | 0 | 101 | 102 | 102 | 104 | 91.5
4 | C=C(NC(=O)C(=C)NC(=O)c1csc(C2=N[C@@H]3c4csc(n4)[C@H]4NC(=O)c5csc(n5)[C@H]([C@](C)(O)[C@@H](C)O)NC(=O)[C@H]5CSC(=N5)/C(=C/C)NC(=O)[C@H]([C@@H](C)O)NC(=O)c5csc(n5)[C@]3(CC2)NC(=O)[C@H](C)NC(=O)C(=C)NC(=O)[C@H](C)NC(=O)[C@H]([C@@H](C)CC)N[C@@H]2C=Cc3c([C@H](C)O)cc(nc3[C@H]2O)C(=O)O[C@@H]4C)n1)C(N)=O [thiostrepton] | > 10 | – | > 10 | > 10 | 4.3 | – | 0.7 | 0.2 | 111 | 102 | 81 | 87.6 | 84.5 | – | – | – | – | – | 100 | 94 | 95.8 | 75.3 | 93.6 | 102 | 89.3 | 89.5 | 82.9 | 96.9 | > 10 | 0 | 101 | 95 | 97.8 | 99.1 | 110
5 | O=C1c2cc(Cl)ccc2OC2CCON12 (stereo unspecified) [seclazone] | > 10 | > 10 | > 10 | > 10 | 0 | 0 | 0 | 0 | 102 | 108 | 94.8 | 97.8 | 107 | 90 | 98.2 | 92.7 | 95.2 | 102 | 106 | 96.7 | 101 | 105 | 100 | 108 | 86.3 | 91 | 97.4 | 99.2 | – | – | – | – | – | – | –
6 | [O-][S+](c1ccccc1)c1ccc2nnnn2n1 (stereo unspecified) [Ro-106-9920] | 3.03 | 2.28 | 2.84 | 2.54 | 5.8 | 6.4 | 6 | 4 | 106 | 102 | 110 | 98.1 | 1.1 | 97.7 | 95.6 | 95.9 | 90.5 | 12.1 | 99.9 | 103 | 95 | 95.9 | 2.5 | 89.7 | 92.3 | 92.1 | 95.4 | 39.5 | – | 1.9 | 96.3 | 94.9 | 105 | 98.8 | 63.7
7 | O=C1C(Cl)=C(N2CCOCC2)C(=O)N1c1ccc(Cl)c(Cl)c1 [RI-1] | > 10 | > 10 | > 10 | > 10 | 0 | 0 | 0 | 0 | 98.9 | 107 | 103 | 97.3 | 98.6 | 102 | 95.5 | 97.7 | 97.1 | 107 | 89.2 | 97.2 | 96.8 | 96.7 | 101 | 97.2 | 94.9 | 93.2 | 106 | 110 | – | – | – | – | – | – | –
8 | CCOC(=O)N1CSC[C@H]1C(=O)O [telmesteine] | > 10 | – | > 10 | > 10 | 0.2 | – | 0 | 0 | 101 | 109 | 105 | 90.1 | 88.9 | – | – | – | – | – | 97.1 | 100 | 99.2 | 96.4 | 99 | 109 | 93.6 | 100 | 90.2 | 95.5 | > 10 | 0 | 97.9 | 91 | 94.8 | 107 | 102
9 | O=C(/C=C/c1ccccc1)NCCO [brolitene] | > 10 | > 10 | > 10 | > 10 | 0 | 0 | 0 | 0 | 107 | 104 | 99.3 | 98 | 102 | 104 | 103 | 99.4 | 104 | 100 | 107 | 109 | 102 | 104 | 99.2 | 102 | 103 | 95 | 93.5 | 95 | – | – | – | – | – | – | –
10 | O=C(O)c1cn(C2CC2)c2cc(N3CCNCC3)c(F)cc2c1=O [ciprofloxacin] | > 10 | > 10 | > 10 | > 10 | 0 | 0 | 0 | 0.4 | 106 | 104 | 114 | 78.1 | 99.8 | 102 | 97.8 | 102 | 91.8 | 97.1 | 100 | 97.8 | 98 | 96.4 | 103 | 112 | 100 | 108 | 112 | 79.1 | – | – | – | – | – | – | –
11 | CC12CC3CC(C)(C1)CC(N)(C3)C2 [memantine] | – | > 10 | > 10 | > 10 | – | 0 | 0 | 0 | – | – | – | – | – | 106 | 99.1 | 105 | 102 | 96.6 | 97.3 | 96.4 | 96.6 | 99.6 | 98.9 | 102 | 91.8 | 90.3 | 96.9 | 96.9 | > 10 | 0.1 | 101 | 98.8 | 98.3 | 99.7 | 87.1
12 | CC(C)Nc1nc2cc(Cl)c(Cl)cc2n1[C@H]1O[C@@H](CO)[C@H](O)[C@@H]1O [maribavir] | > 10 | – | > 10 | > 10 | 0 | – | 0 | 0 | 106 | 104 | 110 | 107 | 97.9 | – | – | – | – | – | 97.7 | 101 | 92.1 | 102 | 93.7 | 96.9 | 98.9 | 97.3 | 99.5 | 91 | > 10 | 0 | 96.4 | 112 | 106 | 101 | 102
13 | CCCCCCCCCCCCCC(=O)[O-].CCCCCCCCCCCCCC(=O)[O-].N[C@@H]1CCCC[C@H]1N.[Pt+2] [miriplatin] | > 10 | – | > 10 | > 10 | 0 | – | 0 | 0 | 105 | 101 | 106 | 97.1 | 92.1 | – | – | – | – | – | 100 | 97.7 | 99.2 | 95.4 | 99.3 | 102 | 93.5 | 98.1 | 91.2 | 104 | > 10 | 0.1 | 90.9 | 101 | 104 | 99.2 | 87.4
14 | COc1ccc(Cc2nc(O)c3c(C)nc([C@@H](CCCc4ccccc4)[C@@H](C)O)n3n2)cc1OC [BAY-60-7550] | – | > 10 | > 10 | > 10 | – | 0 | 0 | 0 | – | – | – | – | – | 103 | 105 | 98.5 | 98.1 | 95.2 | 101 | 106 | 101 | 103 | 94.6 | 95.7 | 101 | 95.5 | 92.4 | 93.1 | > 10 | 0 | 103 | 100 | 118 | 96.6 | 101
15 | CC1CCN(CCCC(=O)c2ccc(F)cc2)CC1 [melperone] | > 10 | > 10 | > 10 | > 10 | 0 | 0 | 0 | 0 | 104 | 96.5 | 102 | 99.7 | 101 | 100 | 98 | 98.9 | 93 | 100 | 99.4 | 98.6 | 95.5 | 100 | 93.7 | 99.3 | 103 | 98.3 | 93.5 | 89.9 | – | – | – | – | – | – | –
